# Data as given in patent publication US7998978B2 (Pfizer Inc., priority 2006, dated 2011).
# pKi: −log10 of the molar value.
# Biological target: T1, JNK1α1 (Homo sapiens, UniProt P45983)
# T1 construct: catalytic domain containing amino acids 1-364 and N-terminal hexahistidine tag; hexahistidine (His6) (N); made in house; host or cells: E. coli BL21 (DE3)
# Test: Coupled spectrophotometric (PK/LDH) JNK1α1 assay: % inhibition and Ki determination
# Format: biochemical
# Conditions: JNK-1
# In short: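 Initial rates were taken from the absorbance decrease at 340 nm at 30° C. Ki was fitted with a tight-binding model over 11 concentrations (top 100 μM); single-point inhibition was tested at 1 or 10 μM.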
# T1 sequence (P45983 1-364): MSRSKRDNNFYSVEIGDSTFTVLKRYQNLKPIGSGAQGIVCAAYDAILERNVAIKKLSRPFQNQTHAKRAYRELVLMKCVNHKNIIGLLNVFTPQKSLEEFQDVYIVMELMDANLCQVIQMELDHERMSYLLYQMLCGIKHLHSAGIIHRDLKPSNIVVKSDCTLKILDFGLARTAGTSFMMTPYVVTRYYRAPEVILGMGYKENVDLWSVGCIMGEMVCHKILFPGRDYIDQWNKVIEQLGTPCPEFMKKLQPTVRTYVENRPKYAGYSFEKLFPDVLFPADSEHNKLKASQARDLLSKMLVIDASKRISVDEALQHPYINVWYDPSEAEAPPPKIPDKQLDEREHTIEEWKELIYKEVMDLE
row,SMILES,pKi
1,"CN1CCC(COc2ccc3cnc(N[C@H]4CC[C@H](O)CC4)nc3c2)CC1 [Example 156, trans-4-({7-[(1-methylpiperidin-4-yl)methoxy]quinazolin-2-yl}amino)cyclohexanol]",6.01
2,"CN(C)CCOc1ccc2cnc(N[C@H]3CC[C@H](O)CC3)nc2c1 [Example 157, trans-4-({7-[2-(dimethylamino)ethoxy]quinazolin-2-yl}amino)cyclohexanol]",5.75
3,"c1cc2cnc(NC3CCOCC3)nc2cc1O[C@H]1CCOC1 [Example 163, 7-[(3S)-tetrahydrofuran-3-yloxy]-N-(tetrahydro-2H-pyran-4-yl)quinazolin-2-amine]",5.76
4,"O[C@H]1CC[C@H](Nc2ncc3cccc(O[C@@H]4CCOC4)c3n2)CC1 [Example 167, trans-4-({8-[(3R)-tetrahydrofuran-3-yloxy]quinazolin-2-yl}amino)cyclohexanol]",6.19
5,"O[C@H]1CC[C@H](Nc2ncc3cccc(O[C@H]4CCOC4)c3n2)CC1 [Example 168, trans-4-({8-[(3S)-tetrahydrofuran-3-yloxy]quinazolin-2-yl}amino)cyclohexanol]",6.24
6,"CC(C)Nc1ncc2cccc(OC3CCOCC3)c2n1 [Example 170, N-isopropyl-8-(tetrahydro-2H-pyran-4-yloxy)quinazolin-2-amine]",5.67
7,"CC(C)Nc1ncc2cccc(OC3CCOC3)c2n1 (stereo not shown) [Example 172, N-isopropyl-8-(tetrahydrofuran-3-yloxy)quinazolin-2-amine]",5.45
8,"c1cc(OC2CCOC2)c2nc(NC3CCOCC3)ncc2c1 (stereo not shown) [Example 173, 8-(tetrahydrofuran-3-yloxy)-N-(tetrahydro-2H-pyran-4-yl)quinazolin-2-amine]",5.72
9,"FC1(F)CCC(Nc2ncc3cccc(OC4CCOC4)c3n2)CC1 (stereo not shown) [Example 174, N-(4,4-difluorocyclohexyl)-8-(tetrahydrofuran-3-yloxy)quinazolin-2-amine]",6.00
10,"c1cc(OC2CCOCC2)c2nc(NC3CCOCC3)ncc2c1 [Example 175, N-(tetrahydro-2H-pyran-4-yl)-8-(tetrahydro-2H-pyran-4-yloxy)quinazolin-2-amine]",6.06
11,"N[C@H]1CC[C@H](Nc2ncc3cccc(OC4CCOC4)c3n2)CC1 (stereo partly drawn) [Example 177, trans-N-[8-(tetrahydrofuran-3-yloxy)quinazolin-2-yl]cyclohexane-1,4-diamine]",6.04
12,"N[C@H]1CC[C@H](Nc2ncc3cccc(OC4CCOCC4)c3n2)CC1 [Example 178, trans-N-[8-(tetrahydro-2H-pyran-4-yloxy)quinazolin-2-yl]cyclohexane-1,4-diamine]",6.13
13,"CC(=O)N[C@H]1CC[C@H](Nc2ncc3cccc(OC4CCOCC4)c3n2)CC1 [Example 179, N-(trans-4-{[8-(tetrahydro-2H-pyran-4-yloxy)quinazolin-2-yl]amino}cyclohexyl)acetamide]",6.18
14,"CC(C)C(=O)N[C@H]1CC[C@H](Nc2ncc3cccc(OC4CCOCC4)c3n2)CC1 [Example 181, 2-methyl-N-(trans-4-{[8-(tetrahydro-2H-pyran-4-yloxy)quinazolin-2-yl]amino}cyclohexyl)propanamide]",6.11
15,"CC(=O)N[C@H]1CC[C@H](Nc2ncc3cccc(OC4CCOC4)c3n2)CC1 (stereo partly drawn) [Example 184, N-(trans-4-{[8-(tetrahydrofuran-3-yloxy)quinazolin-2-yl]amino}cyclohexyl)acetamide]",6.17
16,"CCC(=O)N[C@H]1CC[C@H](Nc2ncc3cccc(OC4CCOC4)c3n2)CC1 (stereo partly drawn) [Example 185, N-(trans-4-{[8-(tetrahydrofuran-3-yloxy)quinazolin-2-yl]amino}cyclohexyl)propanamide]",6.05

# Results, then the compound that gave them:
row,pKi,SMILES
1,6.81,"O[C@H]1CC[C@H](Nc2ncc3ccc(OCC4CCOC4)cc3n2)CC1 (stereo partly drawn) [Example 155, trans-4-{[7-(tetrahydrofuran-3-ylmethoxy)quinazolin-2-yl]amino}cyclohexanol]"
2,6.70,"O[C@H]1CC[C@H](Nc2ncc3ccc(OCC4CCOCC4)cc3n2)CC1 [Example 158, trans-4-{[7-(tetrahydro-2H-pyran-4-ylmethoxy)quinazolin-2-yl]amino}cyclohexanol]"
3,6.72,"O[C@H]1CC[C@H](Nc2ncc3ccc(O[C@@H]4CCOC4)cc3n2)CC1 [Example 159, trans-4-({7-[(3R)-tetrahydrofuran-3-yloxy]quinazolin-2-yl}amino)cyclohexanol]"
4,7.15,"O[C@H]1CC[C@H](Nc2ncc3ccc(O[C@H]4CCOC4)cc3n2)CC1 [Example 160, trans-4-({7-[(3S)-tetrahydrofuran-3-yloxy]quinazolin-2-yl}amino)cyclohexanol]"
5,6.95,"O[C@H]1CC[C@H](Nc2ncc3ccc(Oc4ccccc4)cc3n2)CC1 [Example 161, trans-4-[(7-phenoxyquinazolin-2-yl)amino]cyclohexanol]"
6,6.59,"CS(=O)(=O)N[C@H]1CC[C@H](Nc2ncc3ccc(OC4CCOC4)cc3n2)CC1 (stereo partly drawn) [Example 162, N-(trans-4-{[7-(tetrahydrofuran-3-yloxy)quinazolin-2-yl]amino}cyclohexyl)methanesulfonamide]"
7,6.38,"CC(=O)N[C@H]1CC[C@H](Nc2ncc3ccc(OC4CCOC4)cc3n2)CC1 (stereo partly drawn) [Example 164, N-(trans-4-{[7-(tetrahydrofuran-3-yloxy)quinazolin-2-yl]amino}cyclohexyl)acetamide]"
8,6.82,"O=S(=O)(N[C@H]1CC[C@H](Nc2ncc3ccc(OC4CCOC4)cc3n2)CC1)c1ccccc1 (stereo partly drawn) [Example 165, N-(trans-4-{[7-(tetrahydrofuran-3-yloxy)quinazolin-2-yl]amino}cyclohexyl)benzenesulfonamide]"
9,6.53,"O[C@H]1CC[C@H](Nc2ncc3cccc(OCC4CCCCO4)c3n2)CC1 (stereo partly drawn) [Example 166, trans-4-{[8-(tetrahydro-2H-pyran-2-ylmethoxy)quinazolin-2-yl]amino}cyclohexanol]"
10,6.64,"O[C@H]1CC[C@H](Nc2ncc3cccc(OC4CCOCC4)c3n2)CC1 [Example 169, trans-4-{[8-(tetrahydro-2H-pyran-4-yloxy)quinazolin-2-yl]amino}cyclohexanol]"
11,6.32,"O[C@H]1CC[C@H](Nc2ncc3cccc(OC4CCOC4)c3n2)CC1 (stereo partly drawn) [Example 171, trans-4-{[8-(tetrahydrofuran-3-yloxy)quinazolin-2-yl]amino}cyclohexanol]"
12,6.37,"FC1(F)CCC(Nc2ncc3cccc(OC4CCOCC4)c3n2)CC1 [Example 176, N-(4,4-difluorocyclohexyl)-8-(tetrahydro-2H-pyran-4-yloxy)quinazolin-2-amine]"
13,6.24,"CCC(=O)N[C@H]1CC[C@H](Nc2ncc3cccc(OC4CCOCC4)c3n2)CC1 [Example 180, N-(trans-4-{[8-(tetrahydro-2H-pyran-4-yloxy)quinazolin-2-yl]amino}cyclohexyl)propanamide]"
14,6.84,"CS(=O)(=O)N[C@H]1CC[C@H](Nc2ncc3cccc(OC4CCOCC4)c3n2)CC1 [Example 182, N-(trans-4-{[8-(tetrahydro-2H-pyran-4-yloxy)quinazolin-2-yl]amino}cyclohexyl)methanesulfonamide]"
15,6.66,"CCS(=O)(=O)N[C@H]1CC[C@H](Nc2ncc3cccc(OC4CCOCC4)c3n2)CC1 [Example 183, N-(trans-4-{[8-(tetrahydro-2H-pyran-4-yloxy)quinazolin-2-yl]amino}cyclohexyl)ethanesulfonamide]"
